From a melting point compilation (Tetko et al.; mined from patent text by program, amines drawn as free bases though some values may be those of a salt)

Row | SMILES | melting point [°C]
1 | C=CC1CCC2C3CC(=O)C4=CC(=O)CCC4(C)C3CCC12C (stereo unspecified) | 114 to 120
2 | C#CCN(c1nc(C)n(-c2ccc(Cl)cc2Cl)n1)c1cc(C)ccc1OC | 116
3 | Cc1cnc2c(c1)CCCC2C(N)=O (stereo unspecified) | 104
4 | O=C(Cc1c[nH]cn1)NC(P(=O)(O)O)P(=O)(O)O | 247 to 250
5 | O=S(=O)(c1ccccc1)N1CCC(C(=Nc2ccc(F)cc2)c2ccc(F)cc2)CC1 | 123 to 124
6 | O=NCNC1=Nc2ccc(Cl)cc2N(c2ccccc2)C(=O)C1 | 121 to 124
7 | COc1ccc(CNc2ncc3c(n2)N(c2ccccc2)C(=O)N(c2c(Cl)cccc2Cl)C3)cc1 | 56
8 | Cc1nc2ccc(CBr)cc2c(=O)n1COC(=O)C(C)(C)C | 144 to 145
9 | Cc1ccc(-c2ccc3c(c2)C=C(C(=O)Nc2ccc(CCN4CCCCC4)cc2)CCO3)cc1 | 201 to 202
10 | CCn1c(=O)c2[nH]c(/C=C/c3cc(F)cc(F)c3)nc2n(CC)c1=O | > 280
11 | C(=C\c1cc(/C=C/c2c[nH]c3ccccc23)n[nH]1)/c1ccc(OCc2ccccn2)cc1 | 196 to 199
12 | NC(=O)c1cnc2c(cc([N+](=O)[O-])c3nncc32)c(-c2ccccc2Cl)n1 | > 340
13 | O=C1CNc2ccc(S(=O)(=O)Oc3ccccc3)cc2N1 | 253 to 254
14 | CCON=C(CC)C1=C(O)CC(c2ccc(Sc3ncc(C(F)(F)F)cc3F)cc2)CC1=O (stereo unspecified) | 91 to 92
15 | COc1ccc(CN(C)CCc2ccc(NC(=O)c3cccc4c(=O)c5cccc(OC)c5[nH]c34)cc2)cc1OC | 172
16 | O=C1CCc2c(Cl)sc(Cl)c21 | 168 to 170
17 | COc1ccc(CNc2nc(NC[C@@H](C)O)nc3c2ncn3C(C)C)c(O)c1 | 106 to 108
18 | CCOC(=O)c1cc(=O)cc(-c2ccccc2Cl)o1 | 104 to 106
19 | O=C1CC(NC(=O)C2CCCN3C(=O)CCC(NC(=O)c4ccccc4)C(=O)N23)C(OC2CCCC2)O1 (stereo unspecified) | 172 to 180
20 | Cc1ncoc1C(C)(N)c1ccoc1 (stereo unspecified) | 82.5 to 83.5
21 | CCC(=O)Oc1ccc2c(=O)c(C(=O)CC)c(CC)oc2c1 | 84
22 | Cn1ncc2c1CS(=O)(=O)c1cn[nH]c1-2 | > 270
23 | COCOc1cc(C=CC(=O)c2c(OC)cc(OC)c(CC=C(C)C)c2O)ccc1OC | 116 to 117
24 | COc1ccc(S(=O)(=O)C(CCCCc2ccccc2)C(=O)O)cc1OC (stereo unspecified) | 114 to 116
25 | CCN(C(=O)c1ccccc1C(=O)c1ccc(Cl)cc1)C(C)(C)CNS(=O)(=O)c1ccc(C)cc1 | 175 to 176
26 | CCC(C(=O)N(C)C)n1cc(C)c(-c2ccccc2)n1 (stereo unspecified) | 86 to 88

Row | SMILES | melting point [°C]
27 | COc1ccc(Br)c(OC)c1C#N | 113 to 115
28 | CCC1(C)SC(NC)=NN1C(=O)C(C)(C)C (stereo unspecified) | 132 to 136
29 | CCOC(=O)c1cc2cc(-c3ccc(NC(C)=O)cc3)ccc2o1 | 174 to 176
30 | COc1ccc(Nc2nc(-c3ccc(-c4ccccc4)cc3)cs2)nc1 | 212 to 213
31 | COc1ccc(C2=NNS(=O)(=O)Cc3cc4nsnc4cc32)cc1 | 225 to 227
32 | O=C(Nc1ccc(C(=O)N2Cc3ccccc3Cc3ccccc32)cc1)C1CC=CCC1 (stereo unspecified) | 234 to 236
33 | CC(C)OC(=O)n1c(Cc2ccccc2)noc1=O | 80
34 | Oc1ncnc2nc(CC3CCN(CC4COc5ccccc5O4)CC3)n(Cc3ccc(F)cc3)c12 (stereo unspecified) | 175
35 | NCc1cccc(-c2ccc(Br)cc2)n1 | 71 to 75
36 | Cc1c(-c2cccnc2)sc2nc(N)[nH]c(=O)c12 | 280 to 290
37 | CCOC(=O)c1ccc(-n2cncn2)cc1 | 97 to 99
38 | CCOc1nsc(S(C)(=O)=O)c1Cl | 85 to 87
39 | COc1ccc(CC(C)NC(O)Cc2cc3ccccc3o2)cc1 (stereo unspecified) | 75 to 85
40 | COc1cc2c(c(Cl)c1Cl)C(=O)C(C)(c1ccc(Br)cc1)C2 (stereo unspecified) | 200 to 203
41 | O=C(O)c1ccc(Sc2ccc(OCc3ccc4ccccc4n3)cc2)cc1 | 195 to 197
42 | CC(O)CNc1nc(C2C(=O)Nc3ccc(Br)cc32)c2cn(C)nc2n1 (stereo unspecified) | 298 to 301
43 | CCN1C=C(C(=O)O)C(=O)CC1c1ccc(OC)cc1 (stereo unspecified) | 173 to 174
44 | CC[C@@H]1N(c2ccc(C#N)c(Cl)c2)C(=O)C[C@]1(C)O | 144 to 146
45 | Cc1nc2ccc(S(=O)(=O)n3c(COC(C)C(=O)O)cc4cc(Cl)ccc43)cc2s1 (stereo unspecified) | 106 to 108
46 | CN1CCN(c2nc(Oc3ccccc3)c3ccccc3n2)CC1 | 102 to 103
47 | C=C(C)C(=O)OCCCCOC(=O)/C=C/c1ccc(OC(=O)OCC)cc1 | 54 to 56
48 | CCN(c1ccc(C)cc1)c1cc(NC)nc(C)n1 | 140 to 143
49 | CCN1CCN([C@@H](CNS(=O)(=O)c2ccc(OCc3cc(C)nc4ccccc34)cc2)C(=O)NO)CC1 | 150
50 | CCCCCCCCCCCCNC1=NS(=O)(=O)N=C1NCCSCc1ccc(CN(C)C)o1 | 136 to 139
51 | O=[N+]([O-])c1ccc(S(=O)(=O)NCc2ccc(Cl)cc2)c([N+](=O)[O-])c1 | 161 to 162
52 | CC(C)C(=Nc1ccc([N+](=O)[O-])c(C(F)(F)F)c1)N(C)c1ccccc1 | 52.5 to 54

Row | SMILES | melting point [°C]
53 | NS(=O)(=O)c1ccccc1N1CCCC1 | 78
54 | C=CCn1c2c(c3ccccc31)C(=O)C(Cn1ccnc1C)CC2 (stereo unspecified) | 132
55 | O=C([C@H]1CCCN1C(=O)Nc1ccc2ccccc2c1)N1CCc2c([nH]c3ccccc23)C1 | 152 to 155
56 | Cc1cc(N)cc(C)c1Oc1ccc(O)c(C(=O)c2ccc(F)cc2)c1 | 198 to 202
57 | CC(=O)N(CC1CC1)c1cccc(-c2ccc3nnc(C)n3n2)c1 | 118 to 121
58 | O=C1CC(c2cccc(-n3cnnn3)c2)=Nc2ccc(-c3ccccc3F)cc2N1 | 179 to 180
59 | CCCCSc1c2sc3ccccc3nc-2cc(C)c1=O | 97
60 | CCOc1ccc2nc(COc3ccc(CC4SC(=O)N(C(c5ccccc5)(c5ccccc5)c5ccccc5)C4=O)cc3)n(C)c2n1 (stereo unspecified) | 88 to 100
61 | O=c1[nH][nH]c(C(F)(F)F)c1Cc1ccc2nccnc2c1 | 266 to 268
62 | O=C1N(CC2CCCO2)c2ccccc2C12COc1cc3c(cc12)CCCO3 (stereo unspecified) | 151 to 156
63 | O=C1C=CC(O)(c2cc3ccccc3n2S(=O)(=O)c2ccccc2)C=C1 | 170 to 172
64 | Cn1c(=O)n(SC(Cl)(Cl)Cl)n(-c2ccccc2)c1=O | 214
65 | CC(=O)NC(C(=O)O)C(c1ccc(F)cc1)c1ccc(F)cc1 (stereo unspecified) | 187
66 | CC(C)c1ccc2c(c1)C(=O)N(C)C(c1ccc(C(C)(C)C)cc1)C2 (stereo unspecified) | 103 to 106
67 | CC(CS(=O)(=O)c1ccccc1)C1CCC2C3CC=C4CC(O)CC(O)C4(C)C3CCC12C (stereo unspecified) | 214
68 | Cc1nc(-n2ccn(Cc3ccc(F)cc3)c2=O)sc1C(=O)NCc1cccnc1 | 158 to 159
69 | Cc1cc(-n2ccc(O)cc2=O)sc1C(=O)NCc1cccc(F)c1 | 140 to 142
70 | [N-]=[N+]=NCc1nc2ccccc2n1Cc1ccc(Cl)c(Cl)c1 | 78 to 80
71 | O=C1NC(=O)C(CC#Cc2ccc(Cl)cc2)(Sc2ccc(Cl)cc2)S1 (stereo unspecified) | 144 to 146
72 | COc1cc2cn(N3C(C)CCCC3C)nc2cc1OC (stereo unspecified) | 162 to 163
73 | c1ccc(-c2cc[nH]c2-c2ccccc2)cc1 | 130 to 131
74 | CCCCn1c(=O)c(N)c(-c2cccc(OC)c2)c2cccnc21 | 138 to 141
75 | Cc1cc(-c2cc3c(cc2C)OC(C)(C)C=C3)ccn1 | 212 to 214
76 | O=C(C=Cc1ccc(OC(F)(F)F)cc1)N1CCc2c([nH]c3ccccc23)C1c1ccc2c(c1)OCO2 (stereo unspecified) | 203 to 205
77 | COc1ccc(Cl)cc1C(=O)NC1COc2cc(C)ccc2C1 (stereo unspecified) | 97
78 | CCOCc1nc2c(N)nc3ccccc3c2n1CCCCC(=O)N1CCOCC1 | 128 to 129

Row | SMILES | melting point [°C]
79 | CC1(C)OC(=O)Nc2ccc(-c3ccc(S(N)(=O)=O)s3)cc21 | 258 to 260
80 | CS(=O)(=O)N1C(=O)[C@H](C2CC2)[C@H]2[C@@H]1CCN2C(=O)OCc1ccccc1 (relative stereo) | 144 to 150
81 | CN(C)Cc1ccc(SC2CCNCC2)cc1 | 52
82 | CC(C)CSc1ccc(N)c([N+](=O)[O-])c1 | 56.5 to 58.5
83 | O=C1NC(=O)c2c1c(-c1ccccc1)cc1c2c2cc(O)ccc2n1CCCN1CCOCC1 | 252 to 255
84 | CC(=O)N(C)c1cccc(C2=CCNc3c(C#N)cnn32)c1 | 114 to 120
85 | Nc1ncc2c(n1)-c1ccccc1C(c1ccccc1)=NC2 | 201 to 205
86 | Cc1cc(CN2CCN(C(C)C)CC2)cc2c1Cc1c(-c3ccsc3)n[nH]c1-2 | 113 to 114
87 | Cn1cnc(-c2ccc(NC(=C3C(=O)Oc4ccccc43)c3ccc(C(C)(C)N)cc3)cc2)c1 | > 280
88 | CC(C(=O)O)c1ccc2cc(O)ccc2c1 (stereo unspecified) | 186 to 188
89 | CC1CC(=O)c2cc(OCc3ccccc3)cnc2C1 (stereo unspecified) | 80.5 to 81.5
90 | Fc1cccc(F)c1-c1nc2c(s1)NCCCC2 | 143 to 144
91 | Clc1nccc(-n2ccnc2)n1 | 128
92 | CCOC(=O)/C=C/c1nc(COc2ccc(C=O)cc2OC)c(C)o1 | 117 to 118
93 | Clc1cc(-c2ccnc(NCC3CCCO3)n2)ccn1 (stereo unspecified) | 74 to 75
94 | C#CCOc1cc(Oc2c(F)cccc2F)ncn1 | 67.2
95 | O=[N+]([O-])c1ccc(F)c(-c2cccs2)c1 | 65
96 | O=c1[nH]c(=O)n2c(c1Cc1ccccc1)SCCC2 | 227 to 229
97 | COc1ccn(-c2nc(C)c(C(=O)NCc3ccc(F)c(F)c3)s2)c(=O)c1 | 183 to 185
98 | CC(=O)Nc1ccc(S(=O)(=O)N[C@@H]2COCOC[C@H]2O)cc1 (relative stereo) | 161 to 163
99 | CC1C(=O)N(c2ccc(Cl)cc2)C(=S)N1c1ccc(Cc2ccccc2)cc1 (stereo unspecified) | 144
100 | CCCC(=O)Oc1cc([N+](=O)[O-])cc([N+](=O)[O-])c1O | 65 to 70
101 | Cc1cc(-c2nc3c(Cl)cccc3c(=O)[nH]2)cc(C)c1OCCN1CCCC1 | 216 to 217
